Source: patent publication US8987242B2, “Morpholinone compounds as factor IXA inhibitors” (Merck Sharp & Dohme Corp., priority 2008, dated 2015)
Counter-ions that a name gives are not always drawn.

Each compound was assayed against human factor IXa (Homo sapiens (Human), UniProt P00740) (assay: Determination of inhibitory activity against factor IXa (SPECTROFLUOR FIXa fluorogenic substrate enzyme assay)). Conditions: human factor IXa 2.0 μg/ml, SPECTROFLUOR FIXa 100 μM, 60 minutes at room temperature, pH 8.0; read-out: Factor IXa enzyme assay IC50.
Type: biochemical
Method: Inhibitory activity against factor IXa was tested using the substrate SPECTROFLUOR FIXa (american diagnostica inc.; 500 West Avenue, Stamford, Conn. 06902 USA; Pr. No. 299F) and human factor IXa (american diagnostica inc.; Pr. No. 449b). Test substances dissolved in buffer A (50 mM α,α,α-tris(hydroxymethyl)methylamine (Tris), 100 mM NaCl, 5 mM CaCl2, 15% (v/v) ethylene glycol, pH 8.0) were mixed with factor IXa (2.0 μg/ml final concentration). The enzyme reaction was started by addition of SPECTROFLUOR FIXa (100 μM final concentration). After incubation for 60 minutes at room temperature, the reaction was stopped by the addition of 20% (v/v) acetic acid solution, and then measured the fluorescence value (Excitation Wavelength: 355 nm, Emission Wavelength; 460 nm) in a microtiter plate reader (ARVO 1420 Multilabel Counter; PerkinElmer).
The IC50 was calculated from a dilution series of the test substance with the aid of the software, Symix Assay Explorer (Symyx Technologies, Inc.).

human factor IXa, sequence (P00740 227-461): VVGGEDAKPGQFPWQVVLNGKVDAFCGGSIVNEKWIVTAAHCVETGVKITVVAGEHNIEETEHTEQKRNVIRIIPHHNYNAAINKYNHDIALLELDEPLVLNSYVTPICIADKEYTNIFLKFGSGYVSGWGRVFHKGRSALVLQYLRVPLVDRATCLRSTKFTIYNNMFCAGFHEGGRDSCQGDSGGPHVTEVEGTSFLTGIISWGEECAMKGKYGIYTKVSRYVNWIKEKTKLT
human factor IXa, sequence (P00740 47-191 partner): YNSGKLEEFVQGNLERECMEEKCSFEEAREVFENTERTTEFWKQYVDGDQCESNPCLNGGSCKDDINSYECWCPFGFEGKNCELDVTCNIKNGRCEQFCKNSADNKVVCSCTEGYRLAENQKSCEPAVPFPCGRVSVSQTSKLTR

Row | Structure (SMILES) | IC50 [nM]
1 | N=C1NCc2cc(NC(=O)[C@H](O)[C@H]3OCCN(c4ccc(F)c(C(=O)N5CCOCC5)c4)C3=O)ccc21 [Example aa144, N-(2,3-Dihydro-1-imino-1h-isoindol-5-yl)-4-[4-fluoro-3-(4-morpholinylcarbonyl)phenyl]-alpha(R)-hydroxy-3-oxo-2(R)-morpholineacetamide] | 13
2 | N#Cc1ccccc1N1CCO[C@H]([C@@H](O)C(=O)Nc2ccc3c(c2)CNC3=N)C1=O [Example aa142, 4-(2-Cyanophenyl)-N-(2,3-dihydro-1-imino-1h-isoindol-5-yl)-alpha(R)-hydroxy-3-oxo-2(R)-morpholine acetamide] | 66
3 | Nc1noc2cc(NC(=O)[C@H](O)[C@H]3OCCN(c4ccc(F)c(C(=O)N5CCOCC5)c4)C3=O)c(F)cc12 [Example aa152, N-(3-Amino-5-fluoro-1,2-benzisoxazol-6-yl)-4-[4-fluoro-3-(4-morpholinylcarbonyl)phenyl]-alpha(R)-hydroxy-3-oxo-2(R)-morpholineacetamide] | 1200
4 | Nc1noc2cc(NC(=O)[C@H](O)[C@H]3OCCN(c4ccc(S(F)(F)(F)(F)F)cc4)C3=O)ccc12 [Example aa151, [4-[2(R)-[2-[(3-Amino-1,2-bcnzisoxazol-6-yl)amino]-1(R)-hydroxy-2-oxoethyl]-3-oxo-4-morpholinyl]phenyl] pentafluorosulfur] | 380

Same assay, conditions: human factor IXa 2.0 μg/ml, SPECTROFLUOR FIXa 100 μM, 60 minutes at room temperature, pH 8.0; read-out: Factor IXa enzyme assay IC50 [micro M]

Row | Structure (SMILES) | IC50 [nM]
5 | Cc1ccc(N2CCOC(C(O)C(=O)Nc3ccc4c(N)nccc4c3)C2=O)cc1 (stereo not shown) [Example 1, N-(1-aminoisoquinolin-6-yl)-2-hydroxy-2-(3-oxo-4-p-tolylmorpholin-2-yl)acetamide trifluoroacetate] | 40
6 | Cc1ccc(N2CCO[C@H]([C@@H](O)C(=O)Nc3ccc4c(N)nccc4c3)C2=O)cc1 [Example 62, (2R)—N-(1-aminoisoquinolin-6-yl)-2-hydroxy-2-[(2R)-3-oxo-4-p-tolylmorpholin-2-yl]acetamide hydrochloride] | 20
7 | Cc1ccc(N2CCCO[C@H]([C@@H](O)C(=O)Nc3ccc(C(=N)N)cc3)C2=O)cc1 [Example 114, (2R)—N-(4-amidinophenyl)-2-hydroxy-2-[(2R)-3-oxo-4-(p-tolyl)-1,4-oxazepan-2-yl]acetamide hydrochloride] | 30
8 | CC(=O)N1CCN(c2ccc(C)cc2)C(=O)C1C(O)C(=O)Nc1ccc2c(N)nccc2c1 (stereo not shown) [Example 109, 2-[1-acetyl-3-oxo-4-(p-tolyl)piperazin-2-yl]-N-(1-amino-6-isoquinolyl)-2-hydroxy-acetamide trifluoroacetate] | 60
9 | N=C(N)c1ccc(NC(=O)[C@H](O)[C@H]2OCCN(c3ccc(C4CCCCC4)cc3)C2=O)cc1 [Example 15, (2R)—N-(4-amidinophenyl)-2-[(2R)-4-(4-cyclohexylphenyl)-3-oxomorpholin-2-yl]-2-hydroxyacetamide hydrochloride] | 20
10 | CC(C)(C)c1ccc(N2CCO[C@H]([C@@H](O)C(=O)Nc3ccc(C(=N)N)cc3F)C2=O)cc1 [Example 67, (2R)—N-(4-amidino-2-fluorophenyl)-2-[(2R)-4-(4-tert-butylphenyl)-3-oxomorpholin-2-yl]-2-hydroxyacetamide acetate] | 60
11 | CS(=O)(=O)c1ccccc1-c1ccc(N2CCO[C@H]([C@@H](O)C(=O)Nc3ccc(C(=N)N)cc3)C2=O)cc1 [Example 105, (2R)—N-(4-amidinophenyl)-2-hydroxy-2-[(2R)-4-[4-(2-methylsulfonylphenyl)phenyl]-3-oxomorpholin-2-yl]acetamide hydrochloride] | 10
12 | Cc1ccc(N2CCOC(C(O)C(=O)Nc3ccc(C(=N)N)cc3)C2=O)cc1 (stereo not shown) [Example 2, N-(4-amidinophenyl)-2-hydroxy-2-(3-oxo-4-p-tolylmorpholin-2-yl)acetamide trifluoroacetate] | 30
13 | N=C(N)c1ccc(NC(=O)[C@H](O)[C@H]2OCCN(c3cccc(NC(=O)CO)c3)C2=O)cc1 [Example 50, (2R)—N-(4-amidinophenyl)-2-hydroxy-2-[(2R)-4-[3-[(2-hydroxyacetyl)amino]phenyl]-3-oxomorpholin-2-yl]acetamide hydrochloride] | 20
